The values that follow are results of earlier work, collected in patent US8470371B2, “Polymeric micellar clusters and their uses in formulating drugs” (priority 2006, dated 2013).

Usually Log P stands for a log measure of how a compound divides between an organic and an aqueous phase.

The conditions of series [1]: drug: propofol; literature.
For series [2] the following is noted: comparator amphiphiles.

As for 2-hydroxypropyl-β-cyclodextrin, in series [1], the “Drug Concentration” value was 38700 µg/mL and the “Moles drug encapsulated per mole of polymer” value was 0.75 [10].

Consider `C[C@]12C=CC(=O)C=C1CC[C@@H]1[C@@H]2[C@@H](O)C[C@@]2(C)[C@H]1CC[C@]2(O)C(=O)CO` [Prednisolone], for which the “Log P” value is given as 1.4.

As for `CC(C)c1cccc(C(C)C)c1O` [Propofol], the “Log P” value is listed as 4.1.

As to polysorbate 20, in series [2], the CMC is 53 µM and the HLB was 16.7.
